Where two headings read alike, the source gives them in different places.
Columns and labels:
R. meliloti [1] = assay: microbe, parasite or virus in culture; type: cell-based
R. sphaeroides = type: cell-based
R. meliloti [2] = type: cell-based
S. typhimurium = type: cell-based
B. japonicum = type: cell-based
B. megaterium = type: cell-based
S. lactis = type: cell-based
Ps fluorescens = type: cell-based
R. leguminosarum = type: cell-based
E. coli = type: cell-based
A. crystallopoites = type: cell-based
[3] = cited from earlier work; for Microtox IC50: Table 8
fish (trout fingerlings) = details: Table 8, trout fingerlings; cited from earlier work
[4] = Sinorhizobium meliloti, Table 4, organic compounds, read-out: average (ppm), concentration giving 50% inhibition of dye reduction
[5] = Sinorhizobium meliloti, Table 9, read-out: Rhizobium/Tetrazolium ppm
[6] = ratio of the inhibitory concentrations
[7] = rhizobium meliloti mtt reduction
[8] = Sinorhizobium meliloti, read-out: Rhizobium/Tetrazolium IC50
[9] = Sinorhizobium meliloti, read-out: Rhizobium/Tetrazolium ppm

CCCCCCCCCCCCOS(=O)(=O)[O-].[Na+] [Sodium lauryl sulfate]
IC50 (R. meliloti [1]; [4]): 30.4 µg/mL | IC50 (R. meliloti [1]; [5]): 31 µg/mL | sensitivity of Rhizobium/Tetrazolium assay compared with Microtox assay (R. meliloti [1]; [6]): at least an order of magnitude more sensitive than the Rhizobium/Tetrazolium assay

O=[N+]([O-])c1ccc(O)c([N+](=O)[O-])c1 [Dinitrophenol, dinitrophenol]
absorbance at which the reduction stopped (R. meliloti [1]; A550, FIGS. 3 and 5): 0.2 | IC50 (R. meliloti [1]; [4]): 574 µg/mL

c1ccc(-c2nn(-c3ccccc3)[n+](-c3ccccc3)n2)cc1 [TTC, 2,3,5-triphenyltetrazolium chloride]
absorbance of reduced dye (R. sphaeroides): 0.12 | absorbance of reduced dye (R. meliloti [2]): 0.09 | absorbance of reduced dye (S. typhimurium): 0.04 | absorbance of reduced dye (B. japonicum): 0.07 | absorbance of reduced dye (B. megaterium): 0.1 | absorbance of reduced dye (S. lactis): 0.05 | absorbance of reduced dye (Ps fluorescens): 0.01 | absorbance of reduced dye (R. leguminosarum): 0 | absorbance of reduced dye (E. coli): 0.14 | absorbance of reduced dye (A. crystallopoites): 0.09

[Se] [Selenium]
IC50 (R. meliloti [1]; Sinorhizobium meliloti, Table 7, minerals, read-out: ppm (50% inhibition of dye reduction)): 226 µg/mL

CO [Methanol]
Microtox ppm ([3]; Table 9): 11,368-320400 ppm | IC50 (R. meliloti [1]; Sinorhizobium meliloti, Table 6, solvents, read-out: IC50 ppm): 76500 µg/mL | IC50 (R. meliloti [1]; [5]): 68400 µg/mL

O=c1ccc2[n+]([O-])c3ccc(O)cc3oc-2c1 [Resazurin, resazurin]
usefulness of dye reduction by E. coli (E. coli; protocol used with the tetrazolium dyes): did not yield useful results

[Ni] [Nickel]
Microtox ppm ([3]; microtox bioluminescence): 34 | Rhizobium/Tetrazolium ppm (R. meliloti [1]; [7]): 49.3

[Zn] [Zinc]
Microtox IC50 [3]: 476 ppm | ppm (50% inhibition of dye reduction) (R. meliloti [1]; Table 7, minerals): 4.750 ppm | sensitivity of Rhizobium/Tetrazolium assay compared with Microtox assay (R. meliloti [1]; [6]): at least an order of magnitude more sensitive for 4 compounds | Fish LD50 (50% death of the fish) (fish (trout fingerlings)): 0.24-7.20 ppm

CCO [Ethanol]
Microtox ppm ([3]; microtox bioluminescence): 23,090-55,388 | IC50 (R. meliloti [1]; Sinorhizobium meliloti, read-out: IC50 ppm): 75600 µg/mL

c1ccccc1 [Benzene]
sensitivity of Rhizobium/Tetrazolium assay compared with Microtox assay (R. meliloti [1]): at least an order of magnitude more sensitive than the Rhizobium/Tetrazolium assay | IC50 (R. meliloti [1]; [8]): 712 µg/mL | IC50 (R. meliloti [1]; [9]): 712 to 2100 µg/mL

C[S+](C)[O-] [DMSO, dimethyl sulfoxide]
Microtox ppm ([3]; microtox bioluminescence): 3,506-102,995 | IC50 (R. meliloti [1]): 203.3 μl/tube

ClC(Cl)=C(Cl)Cl [tetrachloroethylene]
IC50 (R. meliloti [1]; [4]): 34.8 µg/mL

[Fe] [iron]
inhibitory effect on the reduction of tetrazolium dye (R. meliloti [1]): no inhibitory effect

[Ca+2].[Cl-].[Cl-] [Calcium, calcium chloride]
effect on the reaction (R. meliloti [1]; 19 ppm, with 500 μl of 5 mM EDTA (0.758 mM EDTA)): does not affect the reaction | ppm (50% inhibition of dye reduction) (R. meliloti [1]; Table 7, minerals): 5.230 ppm | level at which toxic (R. meliloti [1]; in the absence of a counteracting substance): 6 ppm | IC50 (R. meliloti [1]; read-out: toxic concentration in mM equivalent to ppm of Table 7): 0.0471 mM

[Pb] [Lead]
inhibitory effect on the reduction of tetrazolium dye (R. meliloti [1]): no inhibitory effect

Cc1ccccc1 [Toluene]
Microtox IC50 [3]: 33,833 ppm | Microtox ppm ([3]; Table 9): 18.0-33,833 ppm | IC50 (R. meliloti [1]; [8]): 590 µg/mL | IC50 (R. meliloti [1]; [9]): 30 to 502 µg/mL | sensitivity of Rhizobium/Tetrazolium assay compared with Microtox assay (R. meliloti [1]; [6]): at least an order of magnitude more sensitive than the Rhizobium/Tetrazolium assay | Fish LD50 (50% death of the fish) (fish (trout fingerlings)): 23 ppm

Mercury
Microtox ppm ([3]; microtox bioluminescence): 0.06 | inhibition of tetrazolium reduction (R. meliloti [1]): inhibited tetrazolium reduction completely | ppm (50% inhibition of dye reduction) (R. meliloti [1]; [7]): 0.0179

From US5792622A, “Assay for chemicals” (priority 1995, dated 1998)
